Assays:
[1] = system: 5×FAD mice; assay: Intracerebroventricular Alzet pump infusion in 5×FAD and wild type mice: Bdnf, LTP, Y-maze, Morris water maze; assay type: in vivo, mouse
Source text: All animal procedures were approved by the Weill Cornell Medicine Institutional Animal Care and Use Committee (Animal protocol: 2014-0029) and conducted in accordance with the NIH Guide for the Care and Use of Laboratory Animals and ARRIVE guidelines. We used C57/BL6 mice for the induction of ischemic stroke and hemorrhagic stroke. 8-10 weeks old female pregnant CD1 mice were used for primary neuronal culture. Ppp1R15b^flox/flox mice were obtained from Ann-Hwee Lee's group currently working at Regeneron and were bred at Burke Neurological Institute. The genotypes of Ppp1R15b^flox/flox mice were assessed with PCR using DNA isolated from clipped tails of mice. Twelve weeks old male Ppp1R15b^flox/flox mice were used for inactivation of R15b regulatory subunit of protein phosphatase 1 in the hippocampus through AAV8 GFP or Cre intracranial injection. In the current study, 5×FAD mouse was used as a model of AD as this model represents pathological characteristics seen in both genetic as well as sporadic forms of AD. 5×FAD mice (B6/SJL genetic background) was purchased from Jackson's laboratory and was maintained by breeding male heterozygous transgenic mice with wild type female mice. The 5×FAD mice express human APP and PSEN1 transgenes with a total of five AD-linked mutations: the Swedish (K670N/M671L), Florida (I716V), and London (V717I) mutations in APP, and the M146L and L286V mutations in PSEN1. In the current study, 6-7 months old 5×FAD mice were used for the Alzet mini osmotic pump implantation followed by memory assessment, LTP assessment, and gene expression studies.
Brains were quickly removed from mice sacrificed by cervical dislocation and placed in cold artificial cerebrospinal fluid (ACSF) (bubbled with 95% O2/5% CO2) containing (in mM): 124 NaCl, 4 KCl, 1 Na2HPO4, 25 NaHCO3, 2 CaCl2, 2 MgCl2, and 10 glucose. The pH and osmolarity of the solution were 7.4 and 310 mOsm/L, respectively. The hippocampus was isolated and placed on a mechanical tissue chopper to produce transverse hippocampal slices of 400 μm thickness. Slices were maintained in a humidified interface chamber at 29° C. and continuously perfused (˜1 mL/min) with 95% O2/5% CO2-bubbled ACSF. Hippocampal slices were allowed to recover for at least 90 min prior to beginning the experiment. For recordings, glass electrodes were filled with ACSF and positioned in the CA1 stratum radiatum to record fEPSPs evoked by local stimulation (0.1 ms) of Schaffer collateral fibers using a bipolar concentric electrode placed laterally to the recording electrode (˜150 μm). For LTP recordings, the voltage intensity of the stimulation test pulse (square pulse, 100 us duration) for each slice was determined to be the voltage intensity that had generated 30-40% of the maximum slope obtained using input-output relationships. Facilitation was calculated as the ratio of the slopes of the second and first fEPSPs, and plotted as a function of the inter-pulse duration. For LTP, a test pulse was applied every minute. Following a steady baseline of 15 min, potentiation was induced with either 100 Hz for 1 s (weak stimulation) or 3 theta-burst stimulations (TBS; 15 s interval), each one involving a single train of 10 bursts at 5 Hz, where each burst is composed of 4 pulses at 100 Hz (strong stimulation). The fEPSP slopes following tetanic stimulation were normalized to the average of the slopes of the fEPSPs acquired during the baseline. Residual potentiation was calculated as the average of the last 15 min of 2 h of recordings.
The sterile Alzet mini osmotic pumps (Durect, pump model 1004) were filled with 100 μl of either saline or 2-deoxyglucose (10 μg/μl) and were incubated in saline for 24 h to allow the osmotic release of the drug. Thereafter, the pumps were attached properly with the plastic tubing provided in the brain infusion kit 2 3-5 mm (Durect, catalog number 0008663). We made an intracerebroventricular groove stereotaxically in the mouse brain. […]

[2] = system: rats; conditions: dietary supplementation in rats; cited from earlier work
[3] = system: ATF4; assay: In vivo bioluminescence imaging of 5′UTR ATF4 luciferase reporter in mouse brain; conditions: 10 mg/Kg intraperitoneally for 4 h
[4] = ICV Alzet pump, four weeks, wild type mice
[5] = ICV Alzet pump, four weeks, versus wild type mice treated with saline

OC[C@H]1OC(O)C[C@@H](O)[C@@H]1O (stereo partly drawn) [2-DG, (4R,5S,6R)-6-(hydroxymethyl)oxane-2,4,5-triol]
Bdnf gene expression in wild type mice [1, 4]: didn't lead to nootropic upregulation
LTP in wild type mice [1, 4]: didn't lead to nootropic upregulation
Morris water maze task in wild type mice [1, 4]: did not show any nootropic increase
Y-maze task in wild type mice [1, 4]: did not show any nootropic increase
LTP in hippocampal slices from 5×FAD mice ([1]; ICV Alzet pump, four weeks, 5×FAD (saline) vs 5×FAD (2-DG) p=0.0194): normalized
Bdnf gene expression in 5×FAD mice [1, 5]: normalized
spatial long-term memory in Morris water maze, 5×FAD mice [1, 5]: normalized these memories
spatial short-term memory, spontaneous alternation test in Y-maze, 5×FAD mice [1, 5]: normalized these memories
driving the adaptive plasticity program ([1]; intracerebroventricular infusion at 1 g/Kg/day): sufficient in driving the adaptive plasticity program
physiological effects (insulin level, body temperature, blood pressure, heart rate, plasma glucose level, stress adaptation) [2]: mimic the physiological effects of calorie restriction
ATF4 translation in the mouse brain (luciferase activity) [3]: significant increase

From patent US20240197760A1, “ACTIVATORS OF INTEGRATED STRESS RESPONSE PATHWAY FOR PROTECTION AGAINST FERROPTOSIS” (Burke Neurological Institute, priority 2021, published 2024)
